Reference: US20260355112A1, “HIGH-STABILITY LIPOSOME, PREPARATION METHOD THEREFOR, AND USE THEREOF” (SIRIO HEALTHCARE (ANHUI) CO., LTD., priority 2022, published 2026)

Assays:
[1] = Microscopic observation (polarizing microscope); type: physicochemical; conditions: under the microscope
Excerpt: The test sample was taken on a glass slide, spread homogeneously, and covered with a cover glass to prepare a temporary mounting slide.
A transflective polarizing microscope (VPV-900) was used. The specific procedures were as follows: adjust the brightness, fix the temporary mounting slide on the stage, align the light aperture with a low-power objective lens, and adjust the coarse focus screw until the field of view is clear. If the clarity is insufficient, use the fine focus screw for further adjustment or switch to a high-power objective lens for observation.
Bright spots can be observed in the middle of the sample in the field of view, which were crystalline structures.

[2] = background statement; cited from earlier work

SMILES: COC1=C(OC)C(=O)C(C/C=C(\C)CC/C=C(\C)CC/C=C(\C)CC/C=C(\C)CC/C=C(\C)CC/C=C(\C)CC/C=C(\C)CC/C=C(\C)CC/C=C(\C)CCC=C(C)C)=C(C)C1=O [Coenzyme Q10, coenzyme Q10]
- Microscopic structure ([1]; listed as coenzyme Q10 raw material): irregular crystalline structures
- Microscopic structure ([1]; listed as raw material of coenzyme Q10): irregular crystal structure
- Antioxidant capacity relative to vitamin E [2]: 50 times
